From patent publication US10941157B2, “Pesticidal compositions and uses thereof” (Gilead Apollo, LLC, priority 2015, dated 2021)
≈ marks a conversion by molar mass, not a printed value. Like-named read-outs stand apart in the source and are kept apart here.

Experiments:
Type in all cases: cell-based
Botrtyis cinerea (Bc) = experiment: In vitro pathogen growth inhibition assay, Bc; settings: 48 h
Method: (§1) A growth inhibition assay was conducted to determine the ability of compounds to control the growth of fungal pathogens, such as Botrtyis cinerea (Bc), Collectotrichum graminicola (Cg), Diplodia maydis (Dm), Fusarium moniliforme (Fm), Fusarium virguliforme (Fv), Phytophthora capsici (Pc), Rhizoctonia solani (Rs), and Septoria tritici (St). The compounds listed in Table 1 were each dissolved in DMSO at 2.5 mg/ml to produce compound stock solutions (“stocks”). […] Negative controls on each plate included 2% DMSO, water, and a blank (media+2% DMSO). Fungal spores were isolated from previously sub-cultured plates of Botrtyis cinerea (Bc), Collectotrichum graminicola (Cg), Diplodia maydis (Dm), Fusarium moniliforme (Fm), Fusarium virguliforme (Fv), Phytophthora capsici (Pc), and Septoria tritici (St). The isolated spores were diluted to individual concentrations with a 17% V8 liquid media. For Rhizoctonia solani (Rs), 1.5 mm mycelial plugs were used in place of spores and ¼ Potato Dextrose Broth (PDB) was used for dilution. The spore concentrations and plug sizes were based on growth curves generated at 48 hours for each pathogen. In a second 96-well plate, the spores or mycelial plugs, media, diluted compound solutions, and controls were combined. Once the compound was added, a true final concentration of compound in each well was measured by an OD600 reading, which adjusted for any compound precipitation that might have occurred in the well. Plate readings were repeated at both 24 and 48 hours. The blank negative control was used as a background subtraction. Additional visual ratings were performed at both 24 and 48 hours for checking on precipitation and confirming efficacy. […] Both tables list the concentration of each compound that was sufficient to ≥90% inhibition of growth for each of the fungal pathogens listed above. In addition, some of compounds were tested in a yeast growth inhibition assay for Saccharomyces cerevisiae (Sc). Table 2 lists the concentration of the tested compound that was sufficient to ≥75% inhibition of Saccharomyces cerevisiae (Sc).

[1] = system: Collectotrichum graminicola (Cg); experiment: In vitro pathogen growth inhibition assay, Cg; settings: 48 h
Method: as §1

Diplodia maydis (Dm) = experiment: In vitro pathogen growth inhibition assay, Dm; settings: Stenocarpella maydis, 48 h
Method: as §1

[2] = system: Fusarium moniliforme (Fm); experiment: In vitro pathogen growth inhibition assay, Fm; settings: Fusarium verticillioides
Method: as §1

[3] = system: Fusarium virguliforme (Fv); experiment: In vitro pathogen growth inhibition assay, Fv
Method: as §1

[4] = system: Phytophthora capsici (Pc); experiment: In vitro pathogen growth inhibition assay, Pc; settings: 48 h
Method: as §1

Rhizoctonia solani (Rs) = experiment: In vitro pathogen growth inhibition assay, Rs (mycelial plugs); settings: Rhizoctonia solani, 48 h
Method: as §1

Septoria tritici (St) = experiment: In vitro pathogen growth inhibition assay, St; settings: Zymoseptoria tritici, 48 h
Method: as §1

[5] = ≥90% growth inhibition, 48 hours, vs 2% DMSO control, read-out: Compound Concentration (ppm) sufficient for ≥90% inhibition of Bc
[6] = ≥90% growth inhibition, 48 hours, vs 2% DMSO control, read-out: Compound Concentration (ppm) sufficient for ≥90% inhibition of Cg
[7] = ≥90% growth inhibition, 48 hours, vs 2% DMSO control, read-out: Compound Concentration (ppm) sufficient for ≥90% inhibition of Dm
[8] = ≥90% growth inhibition, 48 hours, vs 2% DMSO control, read-out: Compound Concentration (ppm) sufficient for ≥90% inhibition of Fm
[9] = ≥90% growth inhibition, 48 hours, vs 2% DMSO control, read-out: Compound Concentration (ppm) sufficient for ≥90% inhibition of Fv
[10] = ≥90% growth inhibition, 48 hours, vs 2% DMSO control, read-out: Compound Concentration (ppm) sufficient for ≥90% inhibition of Pc
[11] = ≥90% growth inhibition, mycelial plugs, 48 hours, vs 2% DMSO control, read-out: Compound Concentration (ppm) sufficient for ≥90% inhibition of Rs
[12] = ≥90% growth inhibition, 48 hours, vs 2% DMSO control, read-out: Compound Concentration (ppm) sufficient for ≥90% inhibition of St
[13] = concentration sufficient to ≥90% inhibition of growth, 48 hours vs 2% DMSO control, read-out: Compound Concentration (ppm) for ≥90% inhibition, Bc
[14] = concentration sufficient to ≥90% inhibition of growth, 48 hours vs 2% DMSO control, read-out: Compound Concentration (ppm) for ≥90% inhibition, Cg
[15] = concentration sufficient to ≥90% inhibition of growth, 48 hours vs 2% DMSO control, read-out: Compound Concentration (ppm) for ≥90% inhibition, Dm
[16] = concentration sufficient to ≥90% inhibition of growth, 48 hours vs 2% DMSO control, read-out: Compound Concentration (ppm) for ≥90% inhibition, Fm
[17] = concentration sufficient to ≥90% inhibition of growth, 48 hours vs 2% DMSO control, read-out: Compound Concentration (ppm) for ≥90% inhibition, Fv
[18] = concentration sufficient to ≥90% inhibition of growth, 48 hours vs 2% DMSO control, read-out: Compound Concentration (ppm) for ≥90% inhibition, Pc
[19] = concentration sufficient to ≥90% inhibition of growth, 48 hours vs 2% DMSO control, read-out: Compound Concentration (ppm) for ≥90% inhibition, Rs
[20] = concentration sufficient to ≥90% inhibition of growth, 48 hours vs 2% DMSO control, read-out: Compound Concentration (ppm) for ≥90% inhibition, St
[21] = ≥90% inhibition, 48 hours vs 2% DMSO control, read-out: Compound Concentration (ppm) sufficient for ≥90% inhibition of growth, Bc
[22] = ≥90% inhibition, 48 hours vs 2% DMSO control, read-out: Compound Concentration (ppm) sufficient for ≥90% inhibition of growth, Cg
[23] = ≥90% inhibition, 48 hours vs 2% DMSO control, read-out: Compound Concentration (ppm) sufficient for ≥90% inhibition of growth, Dm
[24] = ≥90% inhibition, 48 hours vs 2% DMSO control, read-out: Compound Concentration (ppm) sufficient for ≥90% inhibition of growth, Fm
[25] = ≥90% inhibition, 48 hours vs 2% DMSO control, read-out: Compound Concentration (ppm) sufficient for ≥90% inhibition of growth, Fv
[26] = ≥90% inhibition, 48 hours vs 2% DMSO control, read-out: Compound Concentration (ppm) sufficient for ≥90% inhibition of growth, Pc
[27] = ≥90% inhibition, mycelial plugs, 48 hours vs 2% DMSO control, read-out: Compound Concentration (ppm) sufficient for ≥90% inhibition of growth, Rs
[28] = ≥90% inhibition, 48 hours vs 2% DMSO control, read-out: Compound Concentration (ppm) sufficient for ≥90% inhibition of growth, St

Compound	IC90 (Botrtyis cinerea (Bc); [5]) [µg/mL]	IC90 [1, 6] [µg/mL]	IC90 (Diplodia maydis (Dm); [7]) [µg/mL]	IC90 [2, 8] [µg/mL]	IC90 [3, 9] [µg/mL]	IC90 [4, 10] [µg/mL]	IC90 (Rhizoctonia solani (Rs); [11]) [µg/mL]	IC90 (Septoria tritici (St); [12]) [µg/mL]	further results
CNC(=O)C(C)(C)n1c(=O)c2c(C)c(-n3nccn3)sc2n(C[C@H](OCCC#N)c2ccccc2OC)c1=O [Compound I-209]	2 (≈ 3.63 µM)	50 (≈ 90.6 µM)	≥ 10	0.08 (≈ 0.145 µM)	10 (≈ 18.1 µM)	> 50	0.08 (≈ 0.145 µM)	> 50	
COc1ccc(F)cc1[C@H](Cn1c(=O)n([C@@H](C)C(=O)N(C)C(C)C)c(=O)c2c(C)c(-n3cccn3)sc21)OCCO [Compound I-244]	2 (≈ 3.4 µM)	2 (≈ 3.4 µM)	10 (≈ 17 µM)	0.4 (≈ 0.681 µM)	2 (≈ 3.4 µM)	10 (≈ 17 µM)	0.4 (≈ 0.681 µM)	≥ 50	
COc1ccc(F)cc1[C@H](Cn1c(=O)n([C@@H](C)C(N)=O)c(=O)c2c(C)c(-n3nccn3)sc21)OCCC#N [Compound I-199]									IC90 (Botrtyis cinerea (Bc); [13]): 10 µg/mL (≈ 18.5 µM); IC90 [1, 14]: 50 µg/mL (≈ 92.3 µM); IC90 (Diplodia maydis (Dm); [15]): 50 µg/mL (≈ 92.3 µM); IC90 [2, 16]: 10 µg/mL (≈ 18.5 µM); IC90 [3, 17]: 10 µg/mL (≈ 18.5 µM); IC90 [4, 18]: > 50 µg/mL; IC90 (Rhizoctonia solani (Rs); [19]): 50 µg/mL (≈ 92.3 µM); IC90 (Septoria tritici (St); [20]): > 50 µg/mL
COc1ccc(F)cc1[C@@H](O)Cn1c(=O)n(C(C)(C)C(N)=O)c(=O)c2c(C)c(-n3nccn3)sc21 [Compound I-221]									IC90 (Botrtyis cinerea (Bc); [13]): 10 µg/mL (≈ 19.9 µM); IC90 [1, 14]: 50 µg/mL (≈ 99.5 µM); IC90 (Diplodia maydis (Dm); [15]): > 50 µg/mL; IC90 [2, 16]: 10 µg/mL (≈ 19.9 µM); IC90 [3, 17]: 50 µg/mL (≈ 99.5 µM); IC90 [4, 18]: > 50 µg/mL; IC90 (Rhizoctonia solani (Rs); [19]): > 50 µg/mL; IC90 (Septoria tritici (St); [20]): > 50 µg/mL
COc1ccc(F)cc1[C@H](Cn1c(=O)n(CC(=O)N2CCCC2)c(=O)c2c(C)c(-n3cccn3)sc21)OC(C)C [Compound I-128]									IC90 (Botrtyis cinerea (Bc); [21]): 2 µg/mL (≈ 3.51 µM); IC90 [1, 22]: 10 µg/mL (≈ 17.6 µM); IC90 (Diplodia maydis (Dm); [23]): > 10 µg/mL; IC90 [2, 24]: 0.4 µg/mL (≈ 0.702 µM); IC90 [3, 25]: 2 µg/mL (≈ 3.51 µM); IC90 [4, 26]: > 50 µg/mL; IC90 (Rhizoctonia solani (Rs); [27]): ≥ 2 µg/mL; IC90 (Septoria tritici (St); [28]): > 50 µg/mL
COc1ccc(F)cc1[C@H](Cn1c(=O)n(C(C)(C)C(=O)NC(C)C)c(=O)c2c(C)c(-n3cccn3)sc21)OC[C@H](C)O [Compound I-136]									IC90 (Botrtyis cinerea (Bc); [21]): 2 µg/mL (≈ 3.32 µM); IC90 [1, 22]: 10 µg/mL (≈ 16.6 µM); IC90 (Diplodia maydis (Dm); [23]): ≥ 10 µg/mL; IC90 [2, 24]: 0.4 µg/mL (≈ 0.665 µM); IC90 [3, 25]: 2 µg/mL (≈ 3.32 µM); IC90 [4, 26]: > 50 µg/mL; IC90 (Rhizoctonia solani (Rs); [27]): ≥ 2 µg/mL; IC90 (Septoria tritici (St); [28]): > 50 µg/mL
COc1ccc(F)cc1[C@H](Cn1c(=O)n(C(C)(C)C(=O)NC(C)C)c(=O)c2c(C)c(-n3nccn3)sc21)OCCCO [Compound I-319]	50 (≈ 83 µM)	> 50	> 50	2 (≈ 3.32 µM)	10 (≈ 16.6 µM)	> 50	> 50	> 50	
COc1ccc(F)cc1[C@@](O)(CO)Cn1c(=O)n(C(C)(C)C(=O)NC(C)C)c(=O)c2c(C)c(-n3nccn3)sc21 [Compound I-315]	0.4 (≈ 0.696 µM)	0.08 (≈ 0.139 µM)	0.4 (≈ 0.696 µM)	0.08 (≈ 0.139 µM)	0.4 (≈ 0.696 µM)	2 (≈ 3.48 µM)	0.08 (≈ 0.139 µM)	> 50	
COc1ccc(Cl)cc1[C@H](Cn1c(=O)n(C(C)(C)C(=O)NC(C)C)c(=O)c2c(C)c(-n3nccn3)sc21)OCC(C)(C)C#N [Compound I-272]	2 (≈ 3.11 µM)	2 (≈ 3.11 µM)	2 (≈ 3.11 µM)	2 (≈ 3.11 µM)	2 (≈ 3.11 µM)	> 50	2 (≈ 3.11 µM)	> 50	
